The text below walks through data of patent US5663182A, “Antipsychotic method” (priority 1996, dated 1997).

The test system of series [1] is psychiatric patients suffering from schizophrenia. The settings on record: cited from earlier work.
Another series concerns Rats. As to the kind of experiment: Conditioned avoidance behavior in rats. As to conditions: screening dose 3.0 mg/kg s.c. 30 min before session. It counts as in vivo, rat. From the text:
In a conditioned avoidance test, animals learn to respond during a conditioned stimulus in order to avoid mild shock presentation. A response during the conditioned stimulus is termed an avoidance respone, a response during shock is termed an escape response; a response failure is when the animal fails to respond during either the conditioned stimlus or the shock presentation and is indicative of motor impairment. […] Antipsychotic drugs decrease the percentage of avoidance responses without interfering with the ability of the animal to respond since the animals do emit escape responses. The percentage of response failures is considered a measure of motor impairment.
Rats were required to press a response lever in an experimental chamber in order to avoid or escape foot-shock. Each experimental session consisted of 50 trials. During each trial, the chamber was illuminated and a tone presented for a maximum of 10 sec. A response during the tone immediately terminated the tone and the houselight, ending the trial. In the absence of a response during the tone alone, tone+foot-shock (2.0 mA) was presented for a maximum of 10 sec. A response during shock presentation immediately terminated the shock, the tone and the houselight, ending the trial.
For drug screening, a dose of 3.0 mg/kg was administered s.c. 30 min before the start of the experimental session.

The next series concerns the target muscarinic receptors. As to the kind of experiment: 3H-oxotremorine-M binding assay. As to conditions: 3 nM 3H-oxotremorine-M, rat cerebral cortical membranes, 15 min 25° C.; read-out: Inhibition of 3H-Oxo. The protocol: Each compound was tested to determine the affinity of the compound for the muscarinic receptors using the following procedure.
For each in vitro binding, male Sprague-Dawley (Harlan Sprague-Dawley, Indianapolis, Ind.) rats weighing from about 100 to about 150 grams each were sacrificed by decapitation. The brains were quickly removed and the cerebral cortex were dissected from the brain. The cerebral cortex tissue was homogenized in 10 volumes of 0.32 M sucrose and […] about 10 minutes at about 1000 x g. The supernatant was centrifuged at about 12,000 x g for about 10 minutes and the resulting pellet was resuspended in 20 mM tris-Cl, pH 7.4. The resuspended pellet was centrifuged again for about 10 minutes at about 50,000 x g. The resulting homogenate was preincubated for about 10 minutes at about 25° C. and centrifuged again for about 10 minutes at about 50,000 x g. The pellet was resuspended at 1 gram of pellet per 3 ml of buffer and frozen at about -80° C. until used.
The aforementioned homogenates mixture was incubated for about 15 minutes at about 25° C. and then the homogenates were filtered through glass filters (Whatman, GF/C) with vacuum. The filters were washed 3 times with about 2 ml of cold tris-Cl buffer, and placed in scintillation vials containing about 10 ml of scintillation fluid (Ready Protein+, Beckman, Fullerton, Calif.). Radioactivity trapped on the filters was determined by liquid scintillation spectrometry. Nonspecific binding was determined using 1 μM atropine. […] DeLean, A. et al. Am.

Molecules are shown by their SMILES. Structures can show the parent of a compound that is named as a salt.

In the case of `Cc1cc2c(s1)Nc1ccc(F)cc1N=C2N1CCN(C)CC1` [flumezapine, 7-fluoro-2-methyl-10-(4-methyl-1-piperazinyl)-4H-thieno[2,3-b][1,5]-benzodiazepine], in series [1] (17 patients treated, clinical trial terminated), the “incidence of raised enzyme levels (CPK, SGOT, SGPT) in treated patients” value was “unacceptably high incidence of raised enzyme levels”.
For the compound `O=C(CCCN1CCC(O)(c2ccc(Cl)cc2)CC1)c1ccc(F)cc1` [haloperidol], in series [1] (reported for clinical use), the extra pyramidal symptoms result is reported as “high incidence of extra pyramidal symptoms”.
As to `CN1CCN(C2=Nc3cc(Cl)ccc3Nc3ccccc32)CC1` [clozapine], the agranulocytosis result in series [1] (reported for clinical use) is given as “cause agranulocytosis in some patients”.
As to `CCCCCSc1nsnc1[C@H]1CN2CCC[C@H]1C2` (relative stereo) [Compound 31, Exo-6-(3-pentylthio-1,2,5-thiadiazol-4-yl)-1-azabicyclo[3.2.1]octane oxalate], the “Conditioned Avoidance % Avoidance Responses” value in the series with Rats stood at 1%. The IC50 at muscarinic receptors is 1.8 nM.
For `O=C(O)/C=C/C(=O)O.c1csc(CCCSc2nsnc2C2CN3CCC2CC3)c1` (stereo not shown) [Compound 104, 3-(3-(3-(2-Thienyl)propylthio)-1,2,5-thiadiazol-4-yl)-1-azabicyclo[2.2.2]octane fumarate], the “Conditioned Avoidance % Avoidance Responses” value with Rats was determined as 24%. For the same compound, the IC50 on muscarinic receptors was found to be 2.6 nM.
For `CCCCSc1nsnc1C1CN2CCCC1C2` (single isomer, unassigned) [Compound 111, (-)-Exo-6-(3-butylthio-1,2,5-thiadiazol-4-yl)-1-azabicyclo[3.2.1]octane (+) L-tartrate], the “Conditioned Avoidance % Avoidance Responses” value in the series with Rats (3 mg/kg) turned out to be 8%. For the same compound, at muscarinic receptors, the IC50 is 1 nM.
In the case of `CCSc1nsnc1[C@H]1CN2CCC[C@H]1C2` (relative stereo) [Compound 32, Exo-6-(3-ethylthio-1,2,5-thiadiazol-4-yl)-1-azabicyclo[3.2.1]octane oxalate], the “Conditioned Avoidance % Avoidance Responses” value in the series on Rats is 46%. Also, the IC50 at muscarinic receptors turned out to be 1.3 nM.
In the case of `CCOc1nsnc1C1CN2CCC1CC2.O=C(O)/C=C/C(=O)O` (stereo not shown) [Compound 9, 3-(3-Ethoxy-1,2,5-thiadiazol-4-yl)-1-azabicyclo[2.2.2]octane fumarate], in the series with Rats, the “Conditioned Avoidance % Avoidance Responses” value is listed as 65%. The IC50 at muscarinic receptors worked out at 2.1 nM.
In the case of `FC(F)(F)CCCSc1nsnc1C1CN2CCCC1C2` (single isomer, unassigned; (-)) [Compound 130, (-)-Exo-6-(3-(4,4,4-trifluoro-1-butylthio)-1,2,5-thiadiazol-4-yl)-1-azabicyclo[3.2.1]octane oxalate], the “Conditioned Avoidance % Avoidance Responses” value in the series with Rats (3 mg/kg) came to 43%. Moreover, at muscarinic receptors, the IC50 was 1.8 nM.
On to `CCCCCOc1nsnc1[C@H]1CN2CCC[C@H]1C2` (relative stereo) [Compound 59, Exo-6-(3-pentyloxy-1,2,5-thiadiazol-4-yl)-1-azabicyclo[3.2.1]octane oxalate], for which the “Conditioned Avoidance % Avoidance Responses” value in the series with Rats was 12%. In addition, at muscarinic receptors, the IC50 is 1 nM.
Consider `CC(C)CCCSc1nsnc1[C@H]1CN2CCC[C@H]1C2` (relative stereo) [Compound 76, Exo-6-(3-isohexylthio-1,2,5-thiadiazol-4-yl)-1-azabicyclo[3.2.1]octane oxalate], for which, in the series on Rats, the “Conditioned Avoidance % Avoidance Responses” value is reported as 28%. The IC50 on muscarinic receptors came to 7.7 nM.
